Source: paper PMC2736202 (2009)

Tests used:
Assay in all cases: electrospray mass spectrometry
[1] = test system: UpsB-Q-3 (DNA, G4) CAGGGTTAAGGGTATACATTTAGGGGTTAGGGTT; details: NH4+ 150 mM (NH4OAc); 20% methanol; 10 μM DNA
[2] = test system: UpsB-Q-4 (DNA, G4) CAGGGTTTAGGGTATAACTTTAGGGGTTAGGGTT; details: NH4+ 150 mM (NH4OAc); 20% methanol; 10 μM DNA
[3] = test system: UpsB-Q-1 (DNA, G4) CAGGGTTAAGGGTATAACTTTAGGGGTTAGGGTT; details: NH4+ 150 mM (NH4OAc); 20% methanol; 10 μM DNA, equimolar 10 μM BOQ1 in Figure 6B
[4] = test system: UpsB-Q-2 (DNA, G4) TAGGGTTAAGGGTATAACGTTAAGGGTTAGGGTT; details: NH4+ 150 mM (NH4OAc); 20% methanol; 10 μM DNA

**Q.** For c1cc2nc3c4ccc5cc6cc(ccc6nc53)CNCCNCCNCc3ccc5nc6c(ccc7cc8cc(ccc8nc76)CNCCNCCNCc1cc2c4)cc5c3, which Kd [1] is on record?
**A.** The Kd was 1700 ± 700 nM.

**Q.** What about the Kd [2] of the same compound?
**A.** Its Kd is 2700 ± 1100 nM.

**Q.** What about the Kd [3] of the same compound?
**A.** The Kd was 2600 ± 500 nM.

**Q.** What about the Kd [4] of the same compound?
**A.** Its Kd is 1400 ± 400 nM.
